From patent US9328124B2, “BACE inhibitors” (Eli Lilly and Company, priority 2012, dated 2016)
pIC50: −log10 of the molar value. Structures can show the parent of a compound that is named as a salt. Where two headings read alike, the source gives them in different places.

Experiments:
human BACE1(1-460):Fc = human BACE1(1-460):Fc (Homo sapiens (Human), UniProt P56817); test: BACE1 FRET assay; assay type: biochemical; details: purified recombinant human BACE1, FRET; Mean ± SEM
Procedure: For in vitro enzymatic and cellular assays, test compounds are prepared in DMSO to make up a 10 mM stock solution.
This fusion protein of BACE1(1-460) and human Fc, named huBACE1:Fc, is constructed into the pJB02 vector. Human BACE1(1-460):Fc (huBACE1:Fc) is transiently expressed in HEK293 cells. 250 μg cDNA of each construct is mixed with Fugene 6 and added to 1 liter HEK293 cells. Four days after the transfection, conditioned media are harvested for purification. huBACE1:Fc is purified by Protein A chromatography. The enzyme is stored at −80° C. in small aliquots.
Serial dilutions of test compounds are prepared as described above. Compounds are further diluted 20× in KH2PO4 buffer. Ten μL of each dilution is added to each well on row A to H of a corresponding low protein binding black plate containing the reaction mixture (25 μL of 50 mM KH2PO4, pH 4.6, 1 mM TRITON® X-100, 1 mg/mL Bovine Serum Albumin, and 15 μM of FRET substrate) (See Yang, et. al., J. Neurochemistry, 91(6) 1249-59 (2004)). The content is mixed well on a plate shaker for 10 minutes. […] The RFU of the mixture at time 0 is recorded at excitation wavelength 355 nm and emission wavelength 460 nm, after brief mixing on a plate shaker. […] The RFU at the end of incubation is recorded with the same excitation and emission settings used at time 0. […]

[1] = biological target: native endogenous human BACE1 (Homo sapiens (Human), UniProt P56817); test: HEK293Swe whole cell assay (Abeta ELISA); assay type: cell-based; details: HEK293/APP751sw cells
Procedure: For in vitro enzymatic and cellular assays, test compounds are prepared in DMSO to make up a 10 mM stock solution. The stock solution is serially diluted in DMSO to obtain a ten-point dilution curve with final compound concentrations ranging from […] to 1 nM in a 96-well round-bottom plate before conducting the in vitro enzymatic and whole cell assays. […]
Cells (HEK293/APP751sw at 3.5×10^4 cells/well, containing 200 μL culture media, DMEM containing 10% FBS) are incubated at 37° C. for 4 to 24 h in the presence/absence of inhibitors (diluted in DMSO) at the desired concentration. At the end of the incubation, conditioned media are analyzed for evidence of beta-secretase activity, for example, by analysis of Abeta peptides. Total Abeta peptides (Abeta 1-x) are measured by a sandwich ELISA, using monoclonal 266 as a capture antibody and biotinylated 3D6 as reporting antibody. Alternatively, Abeta 1-40 and Abeta 1-42 peptides are measured by a sandwich ELISA, using monoclonal 2G3 as a capture antibody for Abeta 1-40, and monoclonal 21F12 as a capture antibody for Abeta 1-42. […]

[2] = biological target: native, endogenous murine BACE1 (Mus musculus (Mouse), UniProt P56818); test: PDAPP primary neuronal assay (Abeta ELISA); assay type: cell-based; details: primary cortical neurons from PDAPP embryos
Procedure: For in vitro enzymatic and cellular assays, test compounds are prepared in DMSO to make up a 10 mM stock solution. […] A confirmatory whole cell assay is also run in primary neuronal cultures generated from PDAPP transgenic embryonic mice. […] After 2 days in vitro, culture media is replaced with serum free DMEM/F12 (1:1) containing B27 supplement and 2 μM (final) of Ara-C (Sigma, C1768). At day 5 in vitro, neurons are incubated at 37° C. for 24 h in the presence/absence of inhibitors (diluted in DMSO) at the desired concentration. At the end of the incubation, conditioned media are analyzed for evidence of beta-secretase activity, for example, by analysis of Abeta peptides. […] Both Abeta 1-40 and Abeta 1-42 ELISAs use biotinylated 3D6 as the reporting antibody. The concentration of Abeta released in the conditioned media following the compound treatment corresponds to the activity of BACE1 under such conditions.

[3] = biological target: BACE (the beta-secretase enzyme) (Mus musculus (Mouse), UniProt P56818); test: In vivo inhibition of beta-secretase in PDAPP mice (brain Abeta 1-x); details: 3 hours, young female PDAPP mice, vs vehicle
Procedure: Several animal models, including mouse, rat, guinea pig, dog, and monkey, may be used to screen for inhibition of beta-secretase activity in vivo following compound treatment Animals used in this invention were transgenic PDAPP mice as described in Games et al., Nature 373, 523-527 (1995), which have been useful to analyze in vivo inhibition of Abeta production in the presence of inhibitory compounds. Two month old PDAPP mice are administered compound formulated in N-methylpyrolidone (Pharmasolve®) in water. Three hours following the administration of compound, animals are sacrificed, and brains are removed for analysis of Abeta fragments. (See Dovey, et al., Journal of Neurochemistry, 76, 173-181 (2001); and Johnson-Wood, et al., Proc. Natl. Acad. Sci. USA, 94, 1550-1555 (1997)).
For standard in vivo pharmacology studies, animals are dosed with various concentrations of compound and compared to a vehicle-treated control group dosed at the same time. At the end of the test period, animals are sacrificed and brain tissues are analyzed for the presence of Abeta peptides by specific sandwich ELISA assays. “Abeta 1-x peptide” as used herein refers to the sum of Abeta species that begin with residue 1 and end with a C-terminus greater than residue 28. This detects the majority of Abeta species and is often called “total Abeta”.
Significant and dose-responsive reduction of total Abeta after oral administration of the compound of Example 8 is consistent with a mechanism of BACE (the beta-secretase enzyme) inhibition in vivo. […] As such, compounds of the present invention are efficacious inhibitors of BACE.

[4] = Abeta 1-40, read-out: PDAPP Neuron A-beta (1-40) ELISA IC50
[5] = Abeta 1-42, read-out: PDAPP Neuron A-beta (1-42) ELISA IC50

native, endogenous murine BACE1, sequence (P56818 46-501): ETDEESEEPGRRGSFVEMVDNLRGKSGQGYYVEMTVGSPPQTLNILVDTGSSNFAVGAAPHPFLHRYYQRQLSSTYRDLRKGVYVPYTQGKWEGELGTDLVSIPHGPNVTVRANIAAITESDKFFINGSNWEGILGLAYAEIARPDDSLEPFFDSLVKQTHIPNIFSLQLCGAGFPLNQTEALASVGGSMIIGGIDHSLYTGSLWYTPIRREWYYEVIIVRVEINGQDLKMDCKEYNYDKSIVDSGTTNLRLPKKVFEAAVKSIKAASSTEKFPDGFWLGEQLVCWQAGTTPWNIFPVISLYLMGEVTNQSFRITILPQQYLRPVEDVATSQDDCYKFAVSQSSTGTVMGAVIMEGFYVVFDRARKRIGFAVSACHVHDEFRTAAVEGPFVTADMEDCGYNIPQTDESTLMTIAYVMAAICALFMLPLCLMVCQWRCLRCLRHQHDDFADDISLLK
BACE (the beta-secretase enzyme), sequence (P56818 46-501): as above
native endogenous human BACE1, sequence (P56817 46-501): as the sequence (P56818 46-501) above, with S6P, I162V, I165L, T180S, A182V, V340I, A393L, H443Q counted along it
human BACE1(1-460):Fc, sequence (P56817 22-460): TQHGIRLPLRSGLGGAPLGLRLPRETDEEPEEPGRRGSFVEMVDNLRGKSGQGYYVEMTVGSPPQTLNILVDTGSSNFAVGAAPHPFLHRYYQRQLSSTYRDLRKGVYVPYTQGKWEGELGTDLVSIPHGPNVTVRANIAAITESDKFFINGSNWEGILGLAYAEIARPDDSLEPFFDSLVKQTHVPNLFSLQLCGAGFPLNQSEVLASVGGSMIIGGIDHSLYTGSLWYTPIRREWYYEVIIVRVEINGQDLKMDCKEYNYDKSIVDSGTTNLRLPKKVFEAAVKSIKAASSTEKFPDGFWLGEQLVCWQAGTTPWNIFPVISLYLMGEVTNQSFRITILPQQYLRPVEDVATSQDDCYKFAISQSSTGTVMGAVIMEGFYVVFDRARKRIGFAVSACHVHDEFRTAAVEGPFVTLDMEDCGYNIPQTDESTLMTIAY

SMILES	pIC50 (human BACE1(1-460):Fc)	pIC50 ([1]; Abeta 1-40, read-out: HEK 293 Swe A-beta (1-40) ELISA IC50)	pIC50 ([1]; Abeta 1-42, read-out: HEK 293 Swe A-beta (1-42) ELISA IC50)	pIC50 [2, 4]	pIC50 [2, 5]	Abeta 1-x peptide levels reduced in brain cortex ([3]; 10 mg/kg oral dose)	Abeta 1-x peptide levels reduced in brain hippocampus ([3]; 10 mg/kg oral dose)	Abeta 1-x peptide levels reduced in brain cortex ([3]; 30 mg/kg oral dose) [%]	Abeta 1-x peptide levels reduced in brain hippocampus ([3]; 30 mg/kg oral dose) [%]
CC(C)(O)c1nc(N2C[C@H]3CSC(N)=N[C@@]3(c3cnccn3)C2)ncc1F.Cl [Example 8, 2-[2-[(4aR,7aR)-2-Amino-7a-pyrazin-2-yl-4,4a,5,7-tetrahydropyrrolo[3,4-d][1,3]thiazin-6-yl]-5-fluoro-pyrimidin-4-yl]propan-2-ol hydrochloride]	6.98	6.62	6.40	6.34	6.39	approximately 23%	approximately 19%	~53	~46
CC(C)(O)c1nc(N2C[C@H]3CSC(N)=N[C@@]3(c3ccc(F)cn3)C2)ncc1F [Example 12, 2-[2-[(4aR,7aR)-2-Amino-7a-(5-fluoro-2-pyridyl)-4,4a,5,7-tetrahydropyrrolo[3,4-d][1,3]thiazin-6-yl]-5-fluoro-pyrimidin-4-yl]propan-2-ol hydrochloride]				6.96	7.08				
CC(C)(O)c1nc(N2C[C@H]3CSC(N)=N[C@@]3(c3cccnc3)C2)ncc1F [Example 15, 2-[2-[(4aR,7aS)-2-Amino-7a-(3-pyridyl)-4,4a,5,7-tetrahydropyrrolo[3,4-d][1,3]thiazin-6-yl]-5-fluoro-pyrimidin-4-yl]propan-2-ol hydrochloride]	7.03			7.01	7.10				
